# According to US6287787A, “Dimeric oligopeptide mixture sets” (Torrey Pines Institute for Molecular Studies, priority 1993, dated 2001):
# Where a SMILES comes first, the peptide text is derived from it. Bridges are numbered along the chain shown (N, C = ends). Roman numbers before positions name the chains, in order. [ ]: non-standard residue; d: D form. Met(O) = CS(=O)CC[C@H](N)C(=O)O
# Target: T1, trypsin (bovine pancreas trypsin, Type I) (Bos taurus, UniProt P00760)
# T1 construct: purchased Sigma Chemicals T 8003; host or cells: bovine pancreas
# T1 sequence (P00760 24-246): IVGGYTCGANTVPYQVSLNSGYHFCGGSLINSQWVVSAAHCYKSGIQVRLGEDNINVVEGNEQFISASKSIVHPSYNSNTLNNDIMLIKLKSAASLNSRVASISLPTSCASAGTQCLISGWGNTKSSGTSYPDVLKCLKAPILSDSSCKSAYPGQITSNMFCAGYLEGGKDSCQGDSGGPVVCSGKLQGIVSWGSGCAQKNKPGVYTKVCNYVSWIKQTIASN
# Assay: Competitive inhibition of tryptic hydrolysis of Nα-benzoyl-D,L-arginine-p-nitroanilide
# Format: biochemical
# Description: The inhibition observed was 55 percent at 5 mg/ml.
# For these assays, 50 μl of dimeric oligopeptide mixture set solutions in water (0.5-5 mM) were added to 0.1 M Tris-HCl containing 0.025 M CaCl2, pH 7.8 (100 μl), to which were added 15 μl of trypsin (bovine pancreas trypsin, Type I; Sigma Chemicals T 8003; 0.05 mg/ml in 0.02 N HCl ). The solution was maintained for 30 minutes, and the above substrate (N^α -benzoyl-D,L-arginine-p-nitroanitide) was added (100 μl, 1 mg/ml in water). Absorbances at 405 nm were read using a Titertek multichannel photometer after another 30 minutes had elapsed and were expressed as a percentage of the control (absorbance of a solution without peptide).
smiles,measurement,value
CC(=O)N[C@@H](CC[S+](C)[O-])C(=O)N[C@@H](CSSC[C@H](NC(=O)[C@H](CC[S+](C)[O-])NC(C)=O)C(=O)N[C@@H](Cc1c[nH]c2ccccc12)C(=O)N[C@@H](CCCNC(=N)N)C(N)=O)C(=O)N[C@@H](Cc1c[nH]c2ccccc12)C(=O)N[C@@H](CCCNC(=N)N)C(N)=O (stereo partly shown) [SEQ ID NO:4] (I: Ac-[Met(O)]CWR-NH2 / II: Ac-[Met(O)]CWR-NH2; disulfide I:2-II:2),IC50,53 µM
